Results taken from PubChem BioAssay AID220 (DTP/NCI, 2004).
Records with an inconclusive call do not appear.

Tested on: CD8F1 mice, subcutaneous mammary adenocarcinoma, T/C%
Test: NCI In Vivo Anticancer Drug Screen. Data for tumor model Mammary Adenocarcinoma CD8F1 (subcutaneous) in CD8F1
Conditions: higher = larger tumour
Outline: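 Mice carrying transplanted tumors received test compound, and survival or tumor size was recorded. Each value is the treated-group measurement divided by the corresponding measurement in vehicle-dosed controls.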

[1] = endpoint: median tumor weight (est.), dose: 6.25 mg/kg/injection, schedule: Q07DX005 (ip), vehicle: Klucel (hydroxypropylcellulose) (HPC)
[2] = endpoint: median tumor weight (est.), dose: 12.5 mg/kg/injection, schedule: Q07DX005 (ip), vehicle: Klucel (hydroxypropylcellulose) (HPC)
[3] = endpoint: median tumor weight (est.), dose: 25.0 mg/kg/injection, schedule: Q07DX005 (ip), vehicle: Klucel (hydroxypropylcellulose) (HPC)
[4] = endpoint: median tumor weight (est.), dose: 50.0 mg/kg/injection, schedule: Q07DX005 (ip), vehicle: Klucel (hydroxypropylcellulose) (HPC)
[5] = endpoint: median tumor weight (est.), dose: 100.0 mg/kg/injection, schedule: Q07DX005 (ip), vehicle: Klucel (hydroxypropylcellulose) (HPC)
[6] = endpoint: median tumor weight (est.), dose: 200.0 mg/kg/injection, schedule: Q07DX005 (ip), vehicle: Klucel (hydroxypropylcellulose) (HPC)

## Cc1cn(C2CC(F)C(CO)O2)c(=O)[nH]c1=O (stereo not drawn)
endpoint: median tumor weight change, dose: 250.0 mg/kg/injection, schedule: Q01DX001 (ip), vehicle: suspension in saline
  T/C: 71 % of control
endpoint: median tumor weight change, dose: 500.0 mg/kg/injection, schedule: Q01DX001 (ip), vehicle: suspension in saline
  T/C: 69 % of control
endpoint: median tumor weight change, dose: 1000.0 mg/kg/injection, schedule: Q01DX001 (ip), vehicle: suspension in saline
  T/C: 79 % of control

## CCCCCCC1C=Cc2ccccc21 (stereo not drawn)
[1]
  T/C: 65 % of control
[2]
  T/C: 61 % of control
[3]
  T/C: 84 % of control
[4]
  T/C: 86 % of control
[5]
  T/C: 66 % of control

## COc1cc(C(=O)N/N=C/c2cccc([N+](=O)[O-])c2)cc(OC)c1OC
endpoint: median tumor weight change, dose: 125.0 mg/kg/injection, schedule: Q01DX001 (ip), vehicle: saline with Tween-80
  T/C: 94 % of control
endpoint: median tumor weight change, dose: 250.0 mg/kg/injection, schedule: Q01DX001 (ip), vehicle: saline with Tween-80
  T/C: 60 % of control
endpoint: median tumor weight change, dose: 500.0 mg/kg/injection, schedule: Q01DX001 (ip), vehicle: saline with Tween-80
  T/C: 108 % of control
endpoint: median tumor weight change, dose: 1000.0 mg/kg/injection, schedule: Q01DX001 (ip), vehicle: saline with Tween-80
  T/C: 115 % of control
endpoint: median tumor weight change, dose: 2000.0 mg/kg/injection, schedule: Q01DX001 (ip), vehicle: saline with Tween-80
  T/C: 119 % of control

## O=[N+]([O-])/C=C\c1ccc2c(c1)OCO2
[1]
  T/C: 102 % of control
[2]
  T/C: 59 % of control
[3]
  T/C: 86 % of control
[4]
  T/C: 60 % of control
[5]
  T/C: 55 % of control
[6]
  T/C: 83 % of control

## CCN(CC)CCCC(C)Nc1c2ccc(Cl)cc2nc2ccc(OC)cc12 (stereo not drawn)
endpoint: median tumor weight (est.), dose: 12.5 mg/kg/injection, schedule: Q07DX005 (ip), vehicle: saline
  T/C: 88 % of control
endpoint: median tumor weight (est.), dose: 25.0 mg/kg/injection, schedule: Q07DX005 (ip), vehicle: saline
  T/C: 65 % of control
endpoint: median tumor weight (est.), dose: 25.0 mg/kg/injection, schedule: Q07DX005 (ip), vehicle: suspension in saline
  T/C: 60 % of control
endpoint: median tumor weight (est.), dose: 50.0 mg/kg/injection, schedule: Q07DX005 (ip), vehicle: saline
  T/C: 90 % of control
endpoint: median tumor weight (est.), dose: 50.0 mg/kg/injection, schedule: Q07DX005 (ip), vehicle: suspension in saline
  T/C: 94 % of control
endpoint: median tumor weight (est.), dose: 100.0 mg/kg/injection, schedule: Q07DX005 (ip), vehicle: saline
  T/C: 74 % of control
endpoint: median tumor weight (est.), dose: 100.0 mg/kg/injection, schedule: Q07DX005 (ip), vehicle: suspension in saline
  T/C: 50 % of control

## CCOC(OCC)C(=O)OCC(=O)[C@]1(O)Cc2c(O)c3c(c(O)c2[C@@H](OC2CC(N)C(O)C(C)O2)C1)C(=O)c1c(OC)cccc1C3=O (stereo partly drawn)
endpoint: median tumor weight (est.), dose: 0.5 mg/kg/injection, schedule: Q07DX005 (ip), vehicle: water
  T/C: 166 % of control
endpoint: median tumor weight (est.), dose: 1.0 mg/kg/injection, schedule: Q07DX005 (ip), vehicle: saline
  T/C: 85 % of control
endpoint: median tumor weight (est.), dose: 1.0 mg/kg/injection, schedule: Q07DX005 (ip), vehicle: water
  T/C: 50 % of control
endpoint: median tumor weight (est.), dose: 2.0 mg/kg/injection, schedule: Q07DX005 (ip), vehicle: saline
  T/C: 47 % of control
endpoint: median tumor weight (est.), dose: 2.0 mg/kg/injection, schedule: Q07DX005 (ip), vehicle: water
  T/C: 74 % of control
endpoint: median tumor weight (est.), dose: 4.0 mg/kg/injection, schedule: Q07DX005 (ip), vehicle: saline
  T/C: 20 % of control
endpoint: median tumor weight (est.), dose: 4.0 mg/kg/injection, schedule: Q07DX005 (ip), vehicle: water
  T/C: 24 % of control

## COC1=CC(=O)C(OC)=C(OC)C1=O
endpoint: median tumor weight (est.), dose: 6.25 mg/kg/injection, schedule: Q07DX005 (ip), vehicle: saline with Tween-80
  T/C: 63 % of control
endpoint: median tumor weight (est.), dose: 12.5 mg/kg/injection, schedule: Q07DX005 (ip), vehicle: saline with Tween-80
  T/C: 106 % of control
endpoint: median tumor weight (est.), dose: 25.0 mg/kg/injection, schedule: Q07DX005 (ip), vehicle: saline with Tween-80
  T/C: 90 % of control
endpoint: median tumor weight (est.), dose: 50.0 mg/kg/injection, schedule: Q07DX005 (ip), vehicle: saline with Tween-80
  T/C: 96 % of control
endpoint: median tumor weight (est.), dose: 100.0 mg/kg/injection, schedule: Q07DX005 (ip), vehicle: saline with Tween-80
  T/C: 74 % of control

## OC1CCCC2CCC[N-]C12.OC1CCCC2CCC[N-]C12.[Mn+2] (stereo not drawn)
[2]
  T/C: 83 % of control
[3]
  T/C: 94 % of control
[4]
  T/C: 81 % of control
[5]
  T/C: 67 % of control
[6]
  T/C: 43 % of control
